Four compounds from US20240043539A1, “METHODS OF INDUCING AN IMMUNOMODULATORY TUMOR RESPONSE” (CORNELL UNIVERSITY, priority 2020, published 2024) can be followed below.

Common to all, as to type: cell-based, mouse
The test system of assay [1] is IL-4/IL-13-treated macrophages (BMDMs). The assay is described as follows: Arg1 expression in IL-4/IL-13-treated macrophages (absence of oTME cells), flow cytometry. Background: A flow cytometer gives signals particle by particle.
For assay [2], the system named is Arg1-EYFP BMDMs co-cultured with oTME cells. The protocol:
FIGS. 6A-6H show a genome-wide pooled M2-like education screen in primary macrophages. […] Gene hits in EYFP″g BMDMs are highlighted in red. Distribution of LFC values (red lines) across all four sgRNAs of select gene targets (right). […] Arg1-EYFP BMDMs were co-cultured with oTME cells for 7 days, and then were treated with Abemaciclib (5, 10 μM) or DMSO for additional 7 days and analyzed by flow cytometry for EYFP (n=4 replicates). Data are shown as mean±SD., 2-tailed unpaired Student's t-test. […] Arg1-EYFP BMDMs were treated for 7 days with a cytokines cocktail consists of IL-4 (10 ng/mL), IL-13(80ng/mL), M-CSF(10 ng/mL) or with M-CSF alone as control (supplemented every 3 days). Cells were then treated with Abemaciclib (5 μM) or DMSO for additional 7 days and analyzed by flow cytometry for EYFP (n=3 replicates). Data are shown as mean±SD., 2-tailed unpaired Student's t-test. […] Cells then treated with PF-431369 (5 uM) or DMSO for additional 7 days. On day 14, cells were fixed and stained for Arg1 and CD206 and analyzed by flow cytometry. (n=3 replicates). Data are shown as mean±SD., 2-tailed unpaired Student's t-test. […]
Flow Cytometry and Fluorescence-Activated Cell Sorting (FACS): Flow cytometry data were collected using BD LSRFortessa, BD FACSCanto II, and BD FACSAria III was used for FACS-sort. […]

For another assay, the system named is oTME macrophages (BMDMs). The assay is described as follows: γ-secretase inhibition: Ki67 in M2-educated (oTME) macrophages, flow cytometry. The protocol: BMDMs were co-cultured with oTME cells for 7 days and treated either with CompE ([…]) or DMSO as a control for additional 10 days. Cells were analyzed by flow cytometry for Ki67, F4/80, and CD11b. Data (n=3) are shown as mean±SD., 2-way ANOVA test, Bonferroni-corrected. FIG. 17D is a pre-clinical study design. […] Tumor sizes were recorded by caliper and shown as mean±SD., 2-way ANOVA test, Bonferroni-corrected. At the trial endpoint, lungs were collected and stained with H&E (right). […] At study endpoint, tumor transplants from (FIG. 17E) were scored for Ki67 in macrophages and in tumor cells (PyMT; mT^neg CD45^neg). Data are shown as mean±SD., 2-way ANOVA test, Bonferroni-corrected. Macrophage abundance quantified as percent of CD45+ cells. Data are shown as mean±SD., Mann-Whitney test. […]

Assay [3] has as its system BMDMs plated with oTME cells. The assay is described as follows: EdU incorporation in macrophages following 48 hrs oTME education in the presence of Tyk2 inhibitors. The note with it: BMS-986165, 10 μM vs DMSO, EdU 10 μM. The source says: FIGS. 3A-3H show the time course single-cell RNAseq analysis of macrophage TME-education. […] Cells were profiled after 2 and 10 days with the 10× Chromium single-cell RNA-seq platform. […] The figure legend is the same as FIG. 3B. FIG. 3D is a heatmap showing macrophage education expression dynamics of M-CSF-treated (n=214), early (day 2, n=235), late (day 10, n=301) genes. The cells are sorted and split into 20 equal-width bins by the education pseudo-time, average expression level (row-wise Z-score; color scale) of education signature genes (rows) across each bin (columns) is shown. The figure legend is the same as FIG. 3B. […] Genes are dotted and colored by logFC levels (color scale), the size of each dot represents the difference in the fraction of detection between the two groups. The p values were determined by Wilcoxon Rank Sum test. Vertical dotted lines represent ±0.75 logFC. Horizontal dotted lines represent p value of 0.01 (−log10 scale). […] Each dot represents an average of cells in 50 equal-width bins on the education pseudo-time axis, same as FIG. 3E. […] EdU incorporation was analyzed by flow cytometry (n=4 replicates). […]
EdU Incorporation: Cells were incubated with 10μM EdU (5-ethynyl-2′-deoxyuridine) without changing conditioned growth medium for the required duration and analyzed by flow cytometry according to the manufacturer's instructions (A10202; Thermo Fisher Scientific). […]

Consider `CCN1CCN(Cc2ccc(Nc3ncc(F)c(-c4cc(F)c5nc(C)n(C(C)C)c5c4)n3)nc2)CC1` [abemaciclib, N-[5-[(4-ethylpiperazin-1-yl)methyl]pyridin-2-yl]-5-fluoro-4-(7-fluoro-2-methyl-3-propan-2-ylbenzimidazol-5-yl)pyrimidin-2-amine], for which the Arg1-EYFP expression result in assay [1] (IL-4/IL-13/M-CSF for 7 days, then Abemaciclib (5 μM) or DMSO for additional 7 days) is reported as “suppressed”; in assay [2] (oTME-educated Arg1-EYFP BMDMs, Abemaciclib (5, 10 μM) or DMSO for additional 7 days), “dose-dependent reduction”.
As for `CN(c1ccccc1CNc1nc(Nc2ccc3c(c2)CC(=O)N3)ncc1C(F)(F)F)S(C)(=O)=O` [PF-431396], the Arg1 expression result in assay [1] (IL-4/IL-13-treated macrophages, 5 uM or DMSO for additional 7 days, stained for Arg1 and CD206) is listed as “robust suppression”; in assay [2] (oTME macrophages, 10 μM or DMSO for additional 7 days, EYFP by flow cytometry) it was “robust suppression”.
For the compound `C[C@H](NC(=O)Cc1cc(F)cc(F)c1)C(=O)N[C@H]1N=C(c2ccccc2)c2ccccc2N(C)C1=O` [Compound-E], the “reduction in Ki67 positivity” value in the assay on oTME macrophages (BMDMs) (7 days co-culture, then CompE or DMSO for additional 10 days) is reported as 89.6±3.8%. The “expression of F4/80” value in the assay on oTME macrophages (BMDMs) (oTME macrophages after treatment) was “increased”.
As for `[2H]C([2H])([2H])NC(=O)c1nnc(NC(=O)C2CC2)cc1Nc1cccc(-c2ncn(C)n2)c1OC` [Tyk2 inhibitors, 6-(cyclopropanecarbonylamino)-4-[2-methoxy-3-(1-methyl-1,2,4-triazol-3-yl)anilino]-N-(trideuteriomethyl)pyridazine-3-carboxamide], the “EdU incorporation in oTME macrophages” value in assay [3] was “significantly decreased”.
